Patent publication US20240150339A1, “Compounds and Their Use as PDE4 Activators” (Mironid Limited, priority 2021, published 2024)

What was measured:
[1] = target: T1, PDE4D5 (Homo sapiens, UniProt Q08499); assay: PDE assay, activation of full-length human PDE4D5 long form ([3H]cAMP radio-assay); format: biochemical; details: 30 μM test compound; mean % increase in counts over basal activity
T1 construct: Using Full-Length Human PDE4 Isoforms: Long Forms PDE4D5, PDE4C3, PDE4B1 and Short Form PDE4B2; made in house; cytosol fraction of the cell lysate, not purified
In short: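 Cytosol (100,000 g) from HEK293 cells overexpressing full-length human PDE4 was preincubated with compound for 15 min at room temperature in 10 mM Tris/5 mM MgCl2. Reaction ran with 1 μM [3H]cAMP for 10 min at 30° C, then snake venom conversion, Dowex separation and scintillation counting; activity reported as % increase.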

[2] = target: T2, PDE4C3 (Homo sapiens, UniProt Q08493); assay: PDE assay, activation of full-length human PDE4C3 long form ([3H]cAMP radio-assay); format: biochemical; details: 30 μM test compound; mean % increase in counts over basal activity
T2 construct: Using Full-Length Human PDE4 Isoforms: Long Forms PDE4D5, PDE4C3, PDE4B1 and Short Form PDE4B2; made in house; host or cells: HEK 293 transfected with pcDNA3.1 or pDEST PDE4 expression vector; cytosol fraction of the lysate by analogy to PDE4D5
Description: Experiment 1: Measurement of Modulation of Enzyme Activity by PDE4 Long Form Activators of the Present Invention Using Full-Length Human PDE4 Isoforms: Long Forms PDE4D5, PDE4C3, PDE4B1 and Short Form PDE4B2
(Marchmont, R. J. and Houslay, M. D. Biochem. J. 187: 381-92, 1980)
For transient transfection of exogenous PDE4 long isoforms, HEK 293 cells were transfected with pcDNA3.1 or pDEST™ PDE4 expression vectors using Lipofectamine LTX/Plus reagent (Invitrogen) as outlined by the manufacturer. […]
HEK-PDE4D5 cells were seeded out in 100 mm plates and incubated at 37° C. in an atmosphere of 5% CO2, 95% air. Cell lysates were prepared using KHEM buffer [50 mM KCl, 10 mM EGTA, 50 mM HEPES (pH 7.2), 1.92 mM MgCl2].
To prepare the cell lysates, the 100 mm plates containing the cells were placed on ice and washed with ice-cold PBS (phosphate buffered saline, pH 7.4). KHEM buffer (500 μl) was added to the cells. Cells were then scraped off the plate and triturated using a needle (BD Microlance™ 0.8, 40 mm). The lysed cells were then centrifuged at 2000 rpm for 10 minutes to remove cell debris and the supernatant (cell lysate containing recombinant PDE4D5) was transferred to a fresh tube and kept on ice.
The cell lysate containing recombinant PDE4D5 was transferred into a centrifuge tube and placed into an ultracentrifuge (BECKMAN COULTER) and spun at high speed (100,000 g) for 30 minutes at 4° C. The cytosol fraction was then collected and its protein amount determined using a BCA protein assay.
PDE assays were performed in thin walled V-bottomed 96-well plates. The assays were performed at a final concentration of 10 mM Tris/5 mM MgCl2 μlus PDE4D5 cell lysate cytosol fraction, containing over-expressed PDE4D5, with and without test compound. The lysate/compound mix were incubated together for 15 min at room temperature on an orbital shaker prior to addition of [^3H] cAMP (final concentration 1 μM [^3H] cAMP; Perkin Elmer) to a final volume of 50 μl per reaction. The reactions were then incubated for 10 minutes at 30° C., terminated by heating for 2 min at 95° C. and allowed to cool. Snake venom (12.5 μl of 1 mg/ml; Crotalus atrox, Sigma) was then added and the plates were agitated and incubated for a further 15 minutes at 30° C. Dowex ion exchange resin (Sigma, chloride form, 200-400 mesh; 200 μl; prepared as a 1:1 Dowex: water stock, thoroughly re-suspended and diluted 2:1 with ethanol) was then added to each well and the plates incubated for 15 min at room temperature on an orbital shaker ensuring sufficient agitation for resin suspension (550 RPM). The reaction mixture was then transferred to a 96 well filter plate (Millipore; […] pore size) and filtered into a receiving 96-well plate to remove the dowex suspension. 30 μL of the filtered solution was then transferred to the wells of an Opti-plate (Perkin Elmer) 96 well assay plate and 120 μl of Microscint 40 scintillation fluid was added. The plate was then placed on an orbital shaker for 10 min at high speed (900 RPM) to mix the sample with scintillation fluid prior to quantitation using a plate based scintillation counter (Top-Count).
The % increase in counts in the presence of test compound at a particular concentration indicates the % increase in enzyme activity at that concentration.

[3] = system: PTH-induced cAMP elevation in urine; assay: In vivo model of hyperparathyroidism: PTH-induced cAMP elevation in urine in the anaesthetised rat; details: i.v. infusion, PTH challenge, urine collected from 90 to 120 min, result in words
Description: Within the kidney, the binding of parathyroid hormone (PTH) to PTH receptors results in the Gas-mediated elevation of intracellular cAMP. This increase of intracellular cAMP results in extrusion of cAMP to the urine (Yates et al., J Clin Invest 81: 932-938, 1988). This experiment is based upon a modified Ellsworth-Howard assay (Kruse, K. and Kracht, U., European Journal of Pediatrics 146: 373-377, 1987) and conducted in anaesthetized rats. In this experiment, rats were anaesthetized using isoflurane and catheterised to allow the collection of urine from the bladder. After an initial stabilization period, test compounds were administered by i.v. infusion (modelled to steady state) from time 0-120 min. PTH challenge infusion (33 ug/kg/hour) was started after 60 min of test compound infusion and sustained for one hour (60-120 min). Urine collection was conducted in 30-minute periods. Urine cAMP levels were assessed by ELISA (R&D systems). Urine samples were prepared for analysis as per the manufacturer's instructions. A standard curve for cAMP was assayed for each experiment and samples were assessed using a standard dilution range of 1:2, 1:4, 1:8 and 1:16, ensuring that the resulting data remained on the linear portion of the standard curve. […] Urine cAMP concentration remained below 50,000 pmol/mL. […]

T1 sequence (Q08499 1-745 isoform Q08499-6): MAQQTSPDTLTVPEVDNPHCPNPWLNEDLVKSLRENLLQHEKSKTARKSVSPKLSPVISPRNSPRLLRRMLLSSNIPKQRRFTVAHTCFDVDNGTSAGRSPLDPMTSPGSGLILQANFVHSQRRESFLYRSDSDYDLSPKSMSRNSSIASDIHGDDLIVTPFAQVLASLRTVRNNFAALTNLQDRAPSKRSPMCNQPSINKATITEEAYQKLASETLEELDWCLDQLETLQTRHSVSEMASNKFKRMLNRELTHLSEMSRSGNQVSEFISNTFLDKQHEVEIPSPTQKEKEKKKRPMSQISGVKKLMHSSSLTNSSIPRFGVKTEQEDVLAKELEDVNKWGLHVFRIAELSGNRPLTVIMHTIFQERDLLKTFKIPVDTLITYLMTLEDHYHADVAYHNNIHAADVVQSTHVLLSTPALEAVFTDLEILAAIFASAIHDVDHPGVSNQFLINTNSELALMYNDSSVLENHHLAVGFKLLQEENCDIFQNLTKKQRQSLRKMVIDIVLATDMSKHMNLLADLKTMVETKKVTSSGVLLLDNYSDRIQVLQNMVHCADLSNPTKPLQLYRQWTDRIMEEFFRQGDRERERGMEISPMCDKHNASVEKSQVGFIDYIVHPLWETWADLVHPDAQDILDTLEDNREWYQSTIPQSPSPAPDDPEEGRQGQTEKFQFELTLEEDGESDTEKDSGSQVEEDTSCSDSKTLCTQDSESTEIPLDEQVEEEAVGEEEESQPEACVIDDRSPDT
T2 sequence (Q08493 1-680 isoform Q08493-3): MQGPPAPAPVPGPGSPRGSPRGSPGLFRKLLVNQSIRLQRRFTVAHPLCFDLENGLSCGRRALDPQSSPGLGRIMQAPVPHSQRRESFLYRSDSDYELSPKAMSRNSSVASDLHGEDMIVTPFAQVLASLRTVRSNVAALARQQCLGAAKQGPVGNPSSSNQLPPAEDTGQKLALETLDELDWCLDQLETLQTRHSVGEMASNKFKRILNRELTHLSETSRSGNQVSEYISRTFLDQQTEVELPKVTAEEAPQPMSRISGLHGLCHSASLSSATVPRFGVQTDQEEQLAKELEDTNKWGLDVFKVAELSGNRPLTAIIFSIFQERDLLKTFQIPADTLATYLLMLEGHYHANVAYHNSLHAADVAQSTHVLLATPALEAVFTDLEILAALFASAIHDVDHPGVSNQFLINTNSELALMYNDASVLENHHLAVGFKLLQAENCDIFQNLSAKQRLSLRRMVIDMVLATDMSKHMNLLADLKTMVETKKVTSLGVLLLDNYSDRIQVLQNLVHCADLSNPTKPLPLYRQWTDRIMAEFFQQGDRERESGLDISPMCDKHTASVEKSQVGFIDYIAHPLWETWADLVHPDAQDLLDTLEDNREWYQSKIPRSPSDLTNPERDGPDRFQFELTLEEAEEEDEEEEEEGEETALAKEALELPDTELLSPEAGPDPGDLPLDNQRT

activation at 30 µM [1]: 109%
activation at 30 µM [2]: 105%
SMILES: Cc1ncccc1-c1nc2ccc(C(=O)N[C@H]3CCOc4ccccc43)cc2s1 [Example 7, (S)-N-(chroman-4-yl)-2-(2-methylpyridin-3-yl)benzo[d]thiazole-6-carboxamide]
Inhibition of PTH-induced cAMP elevation in rat urine (FIG. 3) [3]: inhibition
